Assay results reported in patent US12540128B2, “Substituted pyridazinones as herbicides” (SYNGENTA CROP PROTECTION AG, priority 2019, dated 2026).

Tests used:
Type in all cases: in vivo
Conditions in all cases: 250 g/ha, after 13 days
Setaria faberi (SETFA) [1] = assay: B2 Post-Emergence Efficacy Test 2
Experimental: (§1) Seeds of a variety of test species are sown in standard soil in pots:— Amaranthus retoflexus (AMARE), Setaria faberi (SETFA), Echinochloa crus-galli (ECHCG), Ipomoea hederacea (IPOHE), Zea Mays (ZEAMX), Abutilon theophrasti (ABUTH). After 8 days cultivation (post-emergence) under controlled conditions in a glasshouse (at 24/16° C., day/night; 14 hours light; 65% humidity), the plants are sprayed with an aqueous spray solution derived from the formulation of the technical active ingredient in acetone/water (50:50) solution containing 0.5% Tween 20 (polyoxyethylene sorbitan monolaurate, CAS RN 9005-64-5). Compounds are applied at 250 g/ha. The test plants are then grown in a glasshouse under controlled conditions in a glasshouse (at 24/16° C., day/night; 14 hours light; 65% humidity) and watered twice daily. After 13 days, the test is evaluated for the percentage damage caused to the plant. The biological activities are assessed on a five point scale (5=80-100%; 4=60-79%; 3=40-59%; 2=20-39%; 1=0-19%). A blank value in the table is indicative that the compound was not tested on that species.

[2] = system: Echinochloa crus-galli (ECHCG); assay: B2 Post-Emergence Efficacy Test 2
Experimental: as §1

[3] = system: Abutilon theophrasti (ABUTH); assay: B2 Post-Emergence Efficacy Test 2
Experimental: as §1

[4] = system: Ipomoea hederacea (IPOHE); assay: B2 Post-Emergence Efficacy Test 2
Experimental: as §1

[5] = system: Amaranthus retoflexus (AMARE); assay: B2 Post-Emergence Efficacy Test 2
Experimental: as §1

Zea Mays (ZEAMX) [6] = assay: B2 Post-Emergence Efficacy Test 2
Experimental: as §1

Setaria faberi (SETFA) [7] = assay: B4 Pre-Emergence Efficacy Test 2
Experimental: (§2) Seeds of a variety of test species were sown in standard soil in pots: Amaranthus retoflexus (AMARE), Setaria faberi (SETFA), Echinochloa crus-galli (ECHCG), Ipomoea hederacea (IPOHE), Zea Mays (ZEAMX), Abutilon theophrasti (ABUTH). After cultivation for one day (pre-emergence) under controlled conditions in a glasshouse (at 24/16° C., day/night; 14 hours light; 65% humidity), the plants were sprayed with an aqueous spray solution derived from the formulation of the technical active ingredient in acetone/water (50:50) solution containing 0.5% Tween 20 (polyoxyethelyene sorbitan monolaurate, CAS RN 9005-64-5). Compounds are applied at 250 g/ha. The test plants were then grown in a glasshouse under controlled conditions (at 24/16° C., day/night; 14 hours light; 65% humidity) and watered twice daily. After 13 days, the test is evaluated for the percentage damage caused to the plant. The biological activities are assessed on a five point scale (5=80-100%; 4=60-79%; 3=40-59%; 2=20-39%; 1=0-19%). A blank value in the table is indicative that the compound was not tested on that species.

[8] = system: Echinochloa crus-galli (ECHCG); assay: B4 Pre-Emergence Efficacy Test 2
Experimental: as §2

[9] = system: Abutilon theophrasti (ABUTH); assay: B4 Pre-Emergence Efficacy Test 2
Experimental: as §2

[10] = system: Ipomoea hederacea (IPOHE); assay: B4 Pre-Emergence Efficacy Test 2
Experimental: as §2

[11] = system: Amaranthus retoflexus (AMARE); assay: B4 Pre-Emergence Efficacy Test 2
Experimental: as §2

Zea Mays (ZEAMX) [12] = assay: B4 Pre-Emergence Efficacy Test 2
Experimental: as §2

Row | SMILES | percentage damage caused to the plant, five point scale, SETFA (Setaria faberi (SETFA) [1]) | percentage damage caused to the plant, five point scale, ECHCG [2] | percentage damage caused to the plant, five point scale, ABUTH [3] | percentage damage caused to the plant, five point scale, IPOHE [4] | percentage damage caused to the plant, five point scale, AMARE [5] | percentage damage caused to the plant, five point scale, ZEAMX (Zea Mays (ZEAMX) [6]) | percentage damage caused to the plant, five point scale, SETFA (Setaria faberi (SETFA) [7]) | percentage damage caused to the plant, five point scale, ECHCG [8] | percentage damage caused to the plant, five point scale, ABUTH [9] | percentage damage caused to the plant, five point scale, IPOHE [10] | percentage damage caused to the plant, five point scale, AMARE [11] | percentage damage caused to the plant, five point scale, ZEAMX (Zea Mays (ZEAMX) [12])
1 | Cc1nn(C)c(=O)c(-c2c(F)ccc(Cl)c2CCc2ccc3ccsc3c2)c1O [Compound 1.347] | 4 (4=60-79%) | 4 (4=60-79%) | 4 (4=60-79%) | 4 (4=60-79%) | 4 (4=60-79%) | 4 (4=60-79%) | 3 (3=40-59%) | 2 (2=20-39%) | 5 (5=80-100%) | 5 (5=80-100%) | 5 (5=80-100%) | 3 (3=40-59%)
2 | Cc1nn(C)c(=O)c(-c2c(F)ccc(Cl)c2CCc2ccc3sccc3c2)c1O [Compound 1.348] | 4 (4=60-79%) | 4 (4=60-79%) | 3 (3=40-59%) | 4 (4=60-79%) | 4 (4=60-79%) | 4 (4=60-79%) | 3 (3=40-59%) | 4 (4=60-79%) | 3 (3=40-59%) | 5 (5=80-100%) | 5 (5=80-100%) | 1 (1=0-19%)
3 | Cc1nn(C)c(=O)c(-c2c(F)ccc(Cl)c2CCc2ccc3ncsc3c2)c1O [Compound 1.349] | 4 (4=60-79%) | 4 (4=60-79%) | 4 (4=60-79%) | 4 (4=60-79%) | 4 (4=60-79%) | 2 (2=20-39%) | 5 (5=80-100%) | 5 (5=80-100%) | 4 (4=60-79%) | 5 (5=80-100%) | 5 (5=80-100%) | 4 (4=60-79%)
4 | Cc1nn(C)c(=O)c(-c2c(F)ccc(Cl)c2CCc2ccc3scnc3c2)c1O [Compound 1.350, 4-[2-[2-(1,3-benzothiazol-5-yl)ethyl]-3-chloro-6-fluoro-phenyl]-5-hydroxy-2,6-dimethyl-pyridazin-3-one] | 4 (4=60-79%) | 4 (4=60-79%) | 5 (5=80-100%) | 3 (3=40-59%) | 4 (4=60-79%) | 3 (3=40-59%) | 5 (5=80-100%) | 5 (5=80-100%) | 5 (5=80-100%) | 5 (5=80-100%) | 5 (5=80-100%) | 4 (4=60-79%)
5 | Cc1nn(C)c(=O)c(-c2c(F)ccc(Cl)c2CCc2ccc3c(C)noc3c2)c1O [Compound 1.351] | 4 (4=60-79%) | 4 (4=60-79%) | 5 (5=80-100%) | 5 (5=80-100%) | 5 (5=80-100%) | 5 (5=80-100%) | 5 (5=80-100%) | 5 (5=80-100%) | 5 (5=80-100%) | 5 (5=80-100%) | 5 (5=80-100%) | 5 (5=80-100%)
6 | Cc1nn(C)c(=O)c(-c2c(F)ccc(Cl)c2CCc2ccc3oc(=O)[nH]c3c2)c1O [Compound 1.352] | 4 (4=60-79%) | 4 (4=60-79%) | 4 (4=60-79%) | 3 (3=40-59%) | 4 (4=60-79%) | 3 (3=40-59%) | 5 (5=80-100%) | 3 (3=40-59%) | 4 (4=60-79%) | 3 (3=40-59%) | 5 (5=80-100%) | 4 (4=60-79%)
7 | Cc1nn(C)c(=O)c(-c2c(F)ccc(Cl)c2CCc2ccc3cnn(C)c3c2)c1O [Compound 1.353] | 4 (4=60-79%) | 4 (4=60-79%) | 4 (4=60-79%) | 3 (3=40-59%) | 4 (4=60-79%) | 3 (3=40-59%) | 5 (5=80-100%) | 5 (5=80-100%) | 4 (4=60-79%) | 5 (5=80-100%) | 5 (5=80-100%) | 4 (4=60-79%)
8 | Cc1nn(C)c(=O)c(-c2c(F)ccc(Cl)c2CCc2ccc3c(cnn3C)c2)c1O [Compound 1.354] | 4 (4=60-79%) | 5 (5=80-100%) | 4 (4=60-79%) | 4 (4=60-79%) | 4 (4=60-79%) | 4 (4=60-79%) | 5 (5=80-100%) | 5 (5=80-100%) | 4 (4=60-79%) | 5 (5=80-100%) | 4 (4=60-79%) | 4 (4=60-79%)
